In patent EP0452101B1, “Spiro bridged and unbridged heterocyclic compounds” (ISRAEL INSTITUTE FOR BIOLOGICAL RESEARCH, priority 1990, dated 1991):
“And” between values parts separate entries of the source, which are not always exact repeats. Identical values can stand only once. Like-named read-outs stand apart in the source and are kept apart here.

Assays:
M2 muscarinic receptors = biological target: T1, M2 muscarinic receptors (Rattus norvegicus, UniProt P10980); assay: Displacement of 3H-QNB from rat cerebellum, 50 mM phosphate buffer; type: binding
T1 construct: displacing from rat brain homogenates, cerebellum or frontal cortex; from tissue; host or cells: rat cerebellum homogenates
T1 sequence (P10980 1-466): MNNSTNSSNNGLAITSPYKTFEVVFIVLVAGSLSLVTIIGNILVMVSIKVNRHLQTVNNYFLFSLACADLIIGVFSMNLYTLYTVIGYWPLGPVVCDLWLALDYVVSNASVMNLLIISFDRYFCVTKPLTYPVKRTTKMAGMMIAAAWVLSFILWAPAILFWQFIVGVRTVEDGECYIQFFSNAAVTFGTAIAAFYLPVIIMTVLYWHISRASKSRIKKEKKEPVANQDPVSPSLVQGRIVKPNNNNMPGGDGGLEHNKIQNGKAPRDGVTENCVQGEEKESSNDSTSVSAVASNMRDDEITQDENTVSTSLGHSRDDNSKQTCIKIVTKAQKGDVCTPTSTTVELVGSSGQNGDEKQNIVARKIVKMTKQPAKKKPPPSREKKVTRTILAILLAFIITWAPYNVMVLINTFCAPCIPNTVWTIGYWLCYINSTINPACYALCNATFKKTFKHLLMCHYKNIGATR

[1] = test system: Male white mice of the CD-1 strain; assay: Pharmacodynamic profile and general toxicity, Part B (signs, mortality, LD50); type: in vivo; set-up: key to Altered spontaneous motor activity (Mot): increased (inc); decreased (dec); key to Piloerection (Pil) / Hypothermia (Hyp) / Salivation (Sal) / Lacrimation (Lac) / Diarrhea (Dia) / Mydriasis (Myd): sli = slight; mod = moderate; sev = severe; conditions: Table 10
Text: Male white mice of the CD-1 strain (Charles River, UK), within the body weight range of 18-26 g, were used throughout this study, carried out on AF123, AF125 and AF125(N).
Furthermore, these initial trials clearly established that the major signs of reactions to treatment consisted primarily of signs characteristic for potential cholinomimetic activity of the test material, such as tremors, salivation, lacrimation, diarrhea, analgesia, hypothermia and vasodilation. […]

M1 muscarinic receptor [2] = biological target: T2, M1 muscarinic receptor (Rattus norvegicus, UniProt P08482); assay: Displacement of 3H-QNB from rat cerebral cortex, 50 mM phosphate buffer; type: binding; conditions: for RATIOS c:a: KH2 cerebellum : KH1 cortex (3H-QNB); for % H1 / Ki: cortex, Table 5; for Ki: read-out: 3H-QNB-Binding KH1 (a)
T2 sequence (P08482 1-460): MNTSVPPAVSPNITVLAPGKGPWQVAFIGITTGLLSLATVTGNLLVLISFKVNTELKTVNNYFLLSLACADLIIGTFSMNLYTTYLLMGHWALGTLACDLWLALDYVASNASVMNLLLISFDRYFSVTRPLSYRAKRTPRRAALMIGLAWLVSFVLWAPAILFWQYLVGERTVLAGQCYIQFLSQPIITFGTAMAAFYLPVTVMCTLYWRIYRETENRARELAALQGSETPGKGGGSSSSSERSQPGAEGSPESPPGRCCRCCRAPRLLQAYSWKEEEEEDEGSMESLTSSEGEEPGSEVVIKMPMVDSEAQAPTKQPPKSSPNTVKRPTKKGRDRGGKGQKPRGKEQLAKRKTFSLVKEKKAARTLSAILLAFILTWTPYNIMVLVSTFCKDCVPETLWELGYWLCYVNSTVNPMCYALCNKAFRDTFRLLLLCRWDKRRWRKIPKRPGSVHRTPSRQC

M1 muscarinic receptor [3] = biological target: T2, M1 muscarinic receptor; assay: Displacement of 3H-PZ from rat cerebral cortex, 10 mM phosphate buffer; type: binding; set-up: from tissue; host or cells: rat cerebral cortex homogenates; conditions: for RATIOS c:a: KH cerebellum (3H-QNB) : KH cortex (3H-PZ)
scopolamine-treated rats = assay: Passive avoidance (PA) in scopolamine-treated rats; type: in vivo, Sprague-Dawley rats
Protocol: Naive male Sprague-Dawley rats, three months old (obtained from Charles River Breeding, U.K.), were used (weighing 200-300 g.). The passive avoidance (PA) test is according to Fisher et al, Neurosci. Lett. 102: 325 (1989), except that in these rats amnesia was induced by scopolamine.
Eight groups of 17-20 naive rats were used. Each group was divided into two subgroups of 7-10 rats each: subgroup 1 was injected with scopolamine HBr (0.5 mg./kg. in saline, s.c., 15 min. before the shock) and subgroup 2 was injected with saline (1 ml./kg., s.c., 15 min. before the shock). Seven of the groups were treated within one minute after the shock with one of the following doses of the tested compound: 0.1, 0.5, 1, 3, 5, 8, 10 mg./kg. (in saline, i.p.) and one group received saline (1 ml./kg., i.p.).
Eight groups of 18-20 naive rats each were used. Each group was divided into two subgroups of 9-10 rats each: subgroup 1 was injected with scopolamine HBr (0.5 mg./kg. in saline, s.c., 15 min. before the shock) and subgroup 2 was injected with saline (1 ml./kg., s.c., 15 min. before the shock). Seven of the groups were treated, within one minute after the shock, with one of the following doses of AF125(N): 0.1, 0.5, 1, 3, 5, 8 or 10 mg./kg. (in saline, i.p.) and one group received saline (1 ml./kg., i.p.).

muscarinic receptors = assay: (-)3H-QNB binding to rat cerebral cortex homogenates with and without Cu++ treatment; conditions: for Ki: read-out: KL
[4] = 20 mg/kg i.v., animals affected/treated
[5] = cortex, Table 4, read-out: 3H-PZ-Binding KH (a)
[6] = post-shock AF125(N) 0.1 mg/kg i.p., pre-shock Scopolamine
[7] = post-shock AF125(N) 0.1 mg/kg i.p., pre-shock saline
[8] = post-shock AF125(N) 0.5 mg/kg i.p., pre-shock Scopolamine, 0.5 mg/kg
[9] = post-shock AF125(N) 0.5 mg/kg i.p., pre-shock saline
[10] = post-shock AF125(N) 1.0 mg/kg i.p., pre-shock Scopolamine
[11] = post-shock AF125(N) 1.0 mg/kg i.p., pre-shock saline
[12] = post-shock AF125(N) 3.0 mg/kg i.p., pre-shock Scopolamine
[13] = post-shock AF125(N) 3.0 mg/kg i.p., pre-shock saline
[14] = post-shock AF125(N) 5.0 mg/kg i.p., pre-shock Scopolamine
[15] = post-shock AF125(N) 5.0 mg/kg i.p., pre-shock saline, 5 mg/kg
[16] = post-shock AF125(N) 8.0 mg/kg i.p., pre-shock Scopolamine
[17] = post-shock AF125(N) 8.0 mg/kg i.p., pre-shock saline
[18] = post-shock AF125(N) 10.0 mg/kg i.p., pre-shock Scopolamine
[19] = post-shock AF125(N) 10.0 mg/kg i.p., pre-shock saline
[20] = with Cu++ pretreatment (100 µM, 30 minutes)

NC1=NCC2(CN3CCC2CC3)O1 (centres unmarked) [AF125(N), 2-Amino-spiro(1,3-oxazoline-5,3')quinuclidine]
% H (M2 muscarinic receptors; cerebellum, Table 4): 100%
% H2 (M2 muscarinic receptors; cerebellum, Table 5): 100%
Ki (M2 muscarinic receptors; read-out: 3H-QNB-Binding KH2 (c)): 50000 nM
Ki (M2 muscarinic receptors; read-out: 3H-QNB-Binding KH (c)): 5000 nM
Altered spontaneous motor activity (Mot) ([1]; 20 mg/kg i.v.): dec
Mortality no. ([1]; 20 mg/kg i.v.): 0/5
Mydriasis (Myd) ([1]; 20 mg/kg i.v.): sli
Salivation (Sal) ([1]; 20 mg/kg i.v.): sli
Respiratory distress (Res) [1, 4]: 4/5
Tremors (Tre) [1, 4]: 3/5
Mortality no. ([1]; 50 mg/kg i.v.): 5/5
Mortality time ([1]; 50 mg/kg i.v.): immed
Mortality no. ([1]; 100 mg/kg i.v.): 5/5
Mortality time ([1]; 100 mg/kg i.v.): immed
Altered spontaneous motor activity (Mot) ([1]; 200 mg/kg p.os): inc
Mortality no. ([1]; 200 mg/kg p.os): 0/5
Mydriasis (Myd) ([1]; 200 mg/kg p.os): sli
RATIOS c:a (M1 muscarinic receptor [2]): 0.4
% H1 (M1 muscarinic receptor [2]): 100%
Ki (M1 muscarinic receptor [2]): 112000 nM
RATIOS c:a (M1 muscarinic receptor [3]): 83
% H (M1 muscarinic receptor [3]; cortex, Table 4): 28%
%L (M1 muscarinic receptor [3]; cortex, Table 4): 72%
Ki (M1 muscarinic receptor [3]; [5]): 600 nM
Ki (M1 muscarinic receptor [3]; cortex, Table 4, read-out: 3H-PZ-Binding KL (b)): 3000 nM
doses with significant enhancing effect on retention latency (scopolamine-treated rats; i.p., scopolamine-treated rats): 0.5 mg/kg
Initial latency, Mean (scopolamine-treated rats; [6]): 22.3 s
Retention latency, Mean (scopolamine-treated rats; [6]): 199.7 s
Initial latency, Mean (scopolamine-treated rats; [7]): 21.0 s
Retention latency, Mean (scopolamine-treated rats; [7]): 554.7 s
Initial latency, Mean (scopolamine-treated rats; [8]): 62.9 ± 17.4 s and 62.9 s
Retention latency, Mean (scopolamine-treated rats; [8]): 332.7±80.9 sec. and 332.7* sec.
Initial latency, Mean (scopolamine-treated rats; [9]): 28.1 s
Retention latency, Mean (scopolamine-treated rats; [9]): 600.0 s
Initial latency, Mean (scopolamine-treated rats; [10]): 29.1 s
Retention latency, Mean (scopolamine-treated rats; [10]): 114.8 s
Initial latency, Mean (scopolamine-treated rats; [11]): 22.0 s
Retention latency, Mean (scopolamine-treated rats; [11]): 448.9 s
Initial latency, Mean (scopolamine-treated rats; [12]): 23.1 s
Retention latency, Mean (scopolamine-treated rats; [12]): 243.4 s
Initial latency, Mean (scopolamine-treated rats; [13]): 44.1 s
Retention latency, Mean (scopolamine-treated rats; [13]): 500.1 s
Initial latency, Mean (scopolamine-treated rats; [14]): 24.6 s
Retention latency, Mean (scopolamine-treated rats; [14]): 181.6 s
Initial latency, Mean (scopolamine-treated rats; [15]): 65.1 ± 18.5 s and 65.1 s
Retention latency, Mean (scopolamine-treated rats; [15]): 290.3 ± 52.1 s and 290.3 s
Initial latency, Mean (scopolamine-treated rats; [16]): 16.3 s
Retention latency, Mean (scopolamine-treated rats; [16]): 210.2 s
Initial latency, Mean (scopolamine-treated rats; [17]): 19.3 s
Retention latency, Mean (scopolamine-treated rats; [17]): 552.0 s
Initial latency, Mean (scopolamine-treated rats; [18]): 21.5 s
Retention latency, Mean (scopolamine-treated rats; [18]): 129.7 s
Initial latency, Mean (scopolamine-treated rats; [19]): 4.9 s
Retention latency, Mean (scopolamine-treated rats; [19]): 417.5 s

c1ccc(C2=NCC3(CN4CCC3CC4)O2)cc1 (centres unmarked) [AF125(Ph), 2-Phenyl-spiro(1,3-oxazoline-5,3')quinuclidine]
% H (M2 muscarinic receptors; cerebellum, Table 4): 100%
Ki (M2 muscarinic receptors; cerebellum, Table 4, read-out: 3H-QNB-Binding KH (c)): 1370 nM
% H2 (M2 muscarinic receptors; cerebellum, Table 5): 100%
Ki (M2 muscarinic receptors; cerebellum, Table 5, read-out: 3H-QNB-Binding KH2 (c)): 1370 nM
RATIOS c:a (M1 muscarinic receptor [2]): 1.7
% H1 (M1 muscarinic receptor [2]): 100%
Ki (M1 muscarinic receptor [2]): 800 nM
RATIOS c:a (M1 muscarinic receptor [3]): 17.1
% H (M1 muscarinic receptor [3]; cortex, Table 4): 100%
Ki (M1 muscarinic receptor [3]; [5]): 80 nM

CN1[C@@H]2CC[C@H]1C[C@@H](OC(=O)C(CO)c1ccccc1)C2 (some centres unmarked) [Atropine]
%H (% of high affinity state) (muscarinic receptors): 0%

CN1CCN(CC(=O)N2c3ccccc3C(=O)Nc3cccnc32)CC1 [Pirenzepine]
%H (% of high affinity state) (muscarinic receptors; [20]): 64±6%
%H (% of high affinity state) (muscarinic receptors; without pretreatment): 72±3%

CN1[C@@H]2C[C@@H](OC(=O)[C@H](CO)c3ccccc3)C[C@H]1[C@@H]1O[C@@H]12 [Scopolamine]
%H (% of high affinity state) (muscarinic receptors; [20]): 0%
Ki (muscarinic receptors; with Cu++ pretreatment): 0.1 ± 0.005 nM
%H (% of high affinity state) (muscarinic receptors; without pretreatment): 0%
Ki (muscarinic receptors; without pretreatment): 0.09 ± 0.004 nM
